Assay results: BigSolDB 2.1

O=C(O)c1ccc(Br)cn1
solubility (mole fraction)
Settings | in 1,4-dioxane | in THF | in acetonitrile | in ethanol | in ethyl acetate | in isopropanol | in methanol | in methyl acetate | in n-butanol | in n-propanol
278.15 K | – | 0.0326 | 0.00178 | 0.00865 | 0.00491 | 0.0089 | 0.00787 | 0.00916 | 0.0119 | 0.0102
283.15 K | – | 0.0374 | 0.00219 | 0.0103 | 0.00583 | 0.0107 | 0.00924 | 0.0104 | 0.014 | 0.0126
288.15 K | 0.0326 | 0.0426 | 0.00266 | 0.0122 | 0.00674 | 0.0128 | 0.0107 | 0.0117 | 0.0163 | 0.0152
293.15 K | 0.0378 | 0.0478 | 0.0032 | 0.0144 | 0.00802 | 0.0152 | 0.0124 | 0.0131 | 0.0189 | 0.0182
298.15 K | 0.0435 | 0.0543 | 0.00381 | 0.0175 | 0.00937 | 0.018 | 0.0145 | 0.0147 | 0.0218 | 0.0216
303.15 K | 0.0502 | 0.0611 | 0.00449 | 0.0209 | 0.011 | 0.0213 | 0.017 | 0.0164 | 0.0249 | 0.0254
308.15 K | 0.0574 | 0.0663 | 0.00524 | 0.0241 | 0.0126 | 0.025 | 0.0196 | 0.0182 | 0.0283 | 0.0296
313.15 K | 0.0656 | 0.0742 | 0.00607 | 0.028 | 0.0144 | 0.0292 | 0.0229 | 0.0201 | 0.0319 | 0.0342
318.15 K | 0.0744 | 0.0803 | 0.00698 | 0.0323 | 0.0165 | 0.034 | 0.0271 | 0.0221 | 0.0358 | 0.0391
323.15 K | 0.0831 | 0.0886 | 0.00797 | 0.0379 | 0.0186 | 0.0394 | 0.0315 | 0.0244 | 0.0399 | 0.0445
